Measured values published in ChEMBL document CHEMBL5375982, “How Modulator Binding at the Amyloidβ-γ-Secretase Interface Enhances Substrate Binding and Attenuates Membrane Distortion” (J Med Chem, 2023).
Active and inactive are the calls of the source. No cut-off for these calls is given here.

Columns and labels:
Format in all cases: cell-based
[1] = molecular target: T1, Gamma-secretase (Homo sapiens) (UniProt Q96BI3+Q9NZ42+Q8WW43+P49768+Q92542+P49810); test: Modulation of gamma-secretase activity in HEK293T cells transfected with wild type APP C99 assessed as increase in processivity at 10 uM incubated for 24 to 30 hrs by ELISA; settings: filed as modulator, time 24-30 hrs
[2] = molecular target: T1, Gamma-secretase (Homo sapiens); test: Modulation of gamma-secretase activity in HEK293T cells transfected with APP C99 K28R mutant assessed as increase in processivity at 10 uM incubated for 24 to 30 hrs by ELISA; settings: filed as modulator, time 24-30 hrs
[3] = molecular target: T1, Gamma-secretase (Homo sapiens); test: Modulation of gamma-secretase activity in HEK293T cells transfected with APP C99 K28D mutant assessed as increase in processivity at 10 uM incubated for 24 to 30 hrs by ELISA; settings: time 24-30 hrs
[4] = molecular target: T1, Gamma-secretase (Homo sapiens); test: Modulation of gamma-secretase activity in HEK293T cells transfected with APP C99 K28E mutant assessed as increase in processivity at 10 uM incubated for 24 to 30 hrs by ELISA; settings: time 24-30 hrs
[5] = molecular target: T1, Gamma-secretase (Homo sapiens); test: Modulation of gamma-secretase activity in HEK293T cells transfected with APP C99 K28D mutant assessed as […] in amyloidbeta37 to amyloidbeta40 ratio at 10 uM incubated for 24 to 30 hrs by ELISA; settings: filed as modulator, time 24-30 hrs
[6] = molecular target: T1, Gamma-secretase (Homo sapiens); test: Modulation of gamma-secretase activity in HEK293T cells transfected with APP C99 K28E mutant assessed as […] in amyloidbeta37 to amyloidbeta40 ratio at 10 uM incubated for 24 to 30 hrs by ELISA; settings: filed as modulator, time 24-30 hrs

Compound: COc1cc(/C=C2\CCCN([C@@H](C)c3ccc(F)cc3)C2=O)ccc1-n1cnc(C)c1
- Activity [1]: Active
- Activity [2]: Active
- Activity [3]: inactive
- Activity [4]: inactive
- Activity [5]: Active
- Activity [6]: Active
